From patent US20240109868A1, “EP300/CBP MODULATOR, PREPARATION METHOD THEREFOR AND USE THEREOF” (Miracure Biotechnology Limited, priority 2022, published 2024)

How the values were obtained:
22Rv1 Cell = experiment: 22RV1 cell growth inhibition, CellTiter-Glo, 72 h; format: cell-based; conditions: Homo sapiens, 22Rv1, 72 h, 22RV1 cells, 72 h culture
Procedure, shortened: (§1)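 Cells seeded at 5×10^3/well overnight in RPMI-1640/10% FBS, then exposed to compound (0.5% DMSO final) for 72 h at 37 °C.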

CBP bromodomain = biological target: T1, CBP bromodomain (Homo sapiens, UniProt Q92793); experiment: CBP AlphaLISA assay kit (CBP bromodomain binding to acetylated histone substrate); conditions: read-out: CBP ALPHA IC50
T1 construct: purchased
Method: The biochemical activity of the CBP inhibitors was determined using the CBP AlphaLISA® assay kit. The assay is based on the binding of the CBP bromodomain to the acetylated histone substrate. The compounds were incubated with CBP and the biotinylated substrate for 30 min. Then acceptor beads were added, followed by 15 min of incubation, and donor beads were added, followed by 15 min of incubation. Then the alpha counts were read, the data were analyzed using Prism 7.0, and the IC50 values were calculated. The values are shown as mean f SEM (N=2).

vCap Cell = experiment: vCap cell growth inhibition, CellTiter-Glo, 72 h; format: cell-based; conditions: Homo sapiens, VCaP, 72 h, vCap cells, 72 h culture
Procedure, shortened: as §1

EP300 = biological target: T2, EP300 (Homo sapiens, UniProt Q09472); experiment: Ep300 AlphaLISA assay kit; format: biochemical; conditions: read-out: EP300 ALPHA IC50
T2 construct: purchased
Method: The biochemical activity of the EP300 modulators was determined using the Ep300 AlphaLISA® assay kit. The assay is based on the […] of residues in the peptide substrate by enzymatic transfer of acetyl groups from acetyl-CoA to particular lysine. The compounds were incubated with EP300 and then with an antibody combination of an antibody that specifically binds to an acetylated peptide and acceptor beads that bind to an acetylated peptide, followed by streptavidin-labeled donor beads. The alpha counts were read, the data were analyzed using Prism 7.0, and the IC50 values were calculated. The values are shown as mean f SEM (N=2).

T1 sequence (Q92793 1085-1192 limits assumed): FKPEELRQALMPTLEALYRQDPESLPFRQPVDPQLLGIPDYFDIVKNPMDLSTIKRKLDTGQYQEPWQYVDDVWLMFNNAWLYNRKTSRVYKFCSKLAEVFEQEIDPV
T2 sequence (Q09472 whole entry): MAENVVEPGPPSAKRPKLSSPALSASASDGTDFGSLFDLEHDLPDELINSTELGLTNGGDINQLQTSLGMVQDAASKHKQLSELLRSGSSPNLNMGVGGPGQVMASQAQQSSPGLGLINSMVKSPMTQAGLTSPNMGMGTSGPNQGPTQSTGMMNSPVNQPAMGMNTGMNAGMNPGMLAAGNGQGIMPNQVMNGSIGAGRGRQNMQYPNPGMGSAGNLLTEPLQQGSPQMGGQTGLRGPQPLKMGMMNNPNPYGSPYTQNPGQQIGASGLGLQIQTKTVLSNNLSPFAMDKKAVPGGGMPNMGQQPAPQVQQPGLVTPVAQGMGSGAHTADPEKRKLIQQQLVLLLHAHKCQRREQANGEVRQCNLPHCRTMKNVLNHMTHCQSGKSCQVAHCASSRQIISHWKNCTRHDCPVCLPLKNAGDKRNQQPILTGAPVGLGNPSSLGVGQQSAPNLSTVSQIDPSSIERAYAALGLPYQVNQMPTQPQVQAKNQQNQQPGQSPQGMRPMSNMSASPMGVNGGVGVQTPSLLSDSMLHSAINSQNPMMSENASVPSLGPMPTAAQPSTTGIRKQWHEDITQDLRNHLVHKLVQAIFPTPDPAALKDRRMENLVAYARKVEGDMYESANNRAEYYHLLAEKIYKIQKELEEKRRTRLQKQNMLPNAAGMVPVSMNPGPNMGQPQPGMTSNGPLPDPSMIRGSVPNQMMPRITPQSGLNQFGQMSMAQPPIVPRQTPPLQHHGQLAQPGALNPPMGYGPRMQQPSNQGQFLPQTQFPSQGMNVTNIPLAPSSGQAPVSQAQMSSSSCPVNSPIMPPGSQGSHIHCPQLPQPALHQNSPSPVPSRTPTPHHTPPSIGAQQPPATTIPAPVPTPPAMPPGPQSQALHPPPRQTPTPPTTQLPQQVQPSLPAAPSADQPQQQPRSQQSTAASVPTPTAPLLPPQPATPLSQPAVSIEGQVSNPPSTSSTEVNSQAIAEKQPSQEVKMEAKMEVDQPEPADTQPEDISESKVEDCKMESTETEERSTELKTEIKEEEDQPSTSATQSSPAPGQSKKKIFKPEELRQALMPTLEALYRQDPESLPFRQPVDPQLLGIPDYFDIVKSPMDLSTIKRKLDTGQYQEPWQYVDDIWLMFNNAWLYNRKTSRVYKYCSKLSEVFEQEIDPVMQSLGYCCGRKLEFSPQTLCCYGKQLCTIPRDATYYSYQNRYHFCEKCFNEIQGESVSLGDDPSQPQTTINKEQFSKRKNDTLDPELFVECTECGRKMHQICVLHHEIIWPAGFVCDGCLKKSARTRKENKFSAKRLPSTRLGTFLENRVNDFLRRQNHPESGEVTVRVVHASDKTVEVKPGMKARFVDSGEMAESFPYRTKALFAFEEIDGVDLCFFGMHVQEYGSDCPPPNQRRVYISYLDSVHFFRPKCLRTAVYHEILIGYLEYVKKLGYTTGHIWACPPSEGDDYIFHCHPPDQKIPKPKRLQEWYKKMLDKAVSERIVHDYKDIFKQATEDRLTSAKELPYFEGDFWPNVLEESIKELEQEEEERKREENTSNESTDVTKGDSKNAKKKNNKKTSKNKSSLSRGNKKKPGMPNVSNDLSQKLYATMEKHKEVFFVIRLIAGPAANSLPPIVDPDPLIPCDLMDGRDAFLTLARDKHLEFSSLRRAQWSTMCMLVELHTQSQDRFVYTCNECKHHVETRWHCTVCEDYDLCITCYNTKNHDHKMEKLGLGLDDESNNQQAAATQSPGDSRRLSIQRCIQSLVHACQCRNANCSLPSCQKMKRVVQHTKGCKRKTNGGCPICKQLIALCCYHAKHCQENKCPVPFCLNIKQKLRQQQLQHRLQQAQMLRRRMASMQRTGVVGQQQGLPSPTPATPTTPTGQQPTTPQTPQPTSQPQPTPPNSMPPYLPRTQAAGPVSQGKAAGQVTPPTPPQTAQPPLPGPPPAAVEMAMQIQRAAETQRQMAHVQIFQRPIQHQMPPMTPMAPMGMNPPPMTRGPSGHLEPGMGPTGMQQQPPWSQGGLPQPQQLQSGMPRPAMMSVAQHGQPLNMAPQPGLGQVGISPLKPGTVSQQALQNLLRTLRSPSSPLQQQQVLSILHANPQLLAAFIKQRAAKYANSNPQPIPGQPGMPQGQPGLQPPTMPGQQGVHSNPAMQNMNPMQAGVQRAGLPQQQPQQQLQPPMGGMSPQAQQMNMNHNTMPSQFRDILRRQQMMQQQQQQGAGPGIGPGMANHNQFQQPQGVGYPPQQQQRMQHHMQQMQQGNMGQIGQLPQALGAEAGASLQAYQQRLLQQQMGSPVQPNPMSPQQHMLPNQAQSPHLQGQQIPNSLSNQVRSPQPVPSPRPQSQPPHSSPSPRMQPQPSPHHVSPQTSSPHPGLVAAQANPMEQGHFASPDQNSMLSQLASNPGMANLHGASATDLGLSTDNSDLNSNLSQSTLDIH

| Structure (SMILES) | IC50 (22Rv1 Cell) [µM] | IC50 (CBP bromodomain) [µM] | IC50 (vCap Cell) [µM] | IC50 (EP300) [µM] |
| --- | --- | --- | --- | --- |
| CC(=O)N1Cc2cc(C3CCC(=O)N(C)C3)cc(N3CCCc4cc(-c5cnn(C)c5)c(C(F)F)cc43)c2C1 (stereo not shown) [Compound M001173] | < 1 | < 0.01 | < 1 | – |
| CC(=O)N1Cc2nc(C3CCOCC3)nc(N3CCCc4cc(-c5cnn(C)c5)c(C(F)F)cc43)c2C1 [Compound M001243] | > 1 | > 0.01 | > 1 | > 0.01 |
| CC(=O)N1Cc2cc(C3CCC(=O)NC3)cc(N3CCCc4cc(-c5cnn(C)c5)c(C(F)F)cc43)c2C1 (stereo not shown) [Compound M001174] | > 1 | < 0.01 | < 1 | – |
| CC(=O)N1Cc2cc(C3CCN(CC(C)O)C(=O)C3)cc(N3CCCc4cc(-c5cnn(C)c5)c(C(F)F)cc43)c2C1 (stereo not shown) [Compound M001190] | < 1 | < 0.01 | < 1 | – |
| CNC(=O)N1CCc2cc(C3CCN(C(=O)c4ccccc4)CC3)cc(N3CCCc4cc(-c5cnn(C)c5)c(C(F)F)cc43)c2C1 [Compound M001076] | > 1 | < 0.01 | < 1 | – |
| CNC(=O)N1CCc2nc(C3CCOCC3)nc(N3CCCc4cc(-c5cnn(C)c5)c(C(F)F)cc43)c2C1 [Compound M001245, 4-(7-(Difluoromethyl)-6-(1-methyl-1H-pyrazol-4-yl)-3,4-dihydroquinolin-1(2H)-yl)-N-methyl-2-(tetrahydro-2H-pyran-4-yl)-7,8-dihydropyrido[4,3-d]pyrimidine-6(5H)-carboxamide] | > 1 | < 0.01 | > 1 | < 0.01 |
| COC(=O)N1CCc2cccc(N3CCCc4cc(-c5cnn(C)c5)c(C(F)F)cc43)c2C1 [Compound M001202] | > 1 | < 0.01 | > 1 | < 0.01 |
| CNC(=O)N1CCc2c(c(N3CCCc4cc(-c5cnn(C)c5)c(C(F)F)cc43)nn2C2CCOCC2)C1 [GNE-781] | > 1 | < 0.01 | > 1 | < 0.01 |
| CNC(=O)N1Cc2nc(Cl)nc(N3CCCc4cc(-c5cnn(C)c5)c(C(F)F)cc43)c2C1 [Compound M001242] | > 1 | > 0.01 | > 1 | > 0.01 |
| CC(=O)N1Cc2cc(C3CCOCC3)cc(N3CCCc4cc(-c5cnn(C)c5)c(C(F)F)cc43)c2C1 [Compound M001067] | > 1 | < 0.01 | < 1 | < 0.01 |
| COCCN1CCC(c2cc3c(c(N4CCCc5cc(-c6cnn(C)c6)c(C(F)F)cc54)c2)CN(C(C)=O)C3)CC1=O (stereo not shown) [Compound M001191] | < 1 | < 0.01 | < 1 | – |
| COC1CCC(c2cc3c(c(N4CCCc5cc(-c6cnn(C)c6)c(C(F)F)cc54)c2)CN(C(C)=O)C3)CC1 (stereo not shown) [Compound M001065] | < 1 | < 0.01 | < 1 | – |
| CC(=O)N1CCCc2cccc(N3CCCc4cc(-c5cnn(C)c5)c(C(F)F)cc43)c2C1 [Compound M001212] | > 1 | – | > 1 | – |
| CNC(=O)N1Cc2cc(-c3ccc(OC)cc3)cc(N3CCCc4cc(-c5cnn(C)c5)c(C(F)F)cc43)c2C1 [Compound M001121] | > 1 | – | > 1 | – |
| CNC(=O)N1Cc2cc(-c3ccn(C)c(=O)c3)cc(N3CCCc4cc(-c5cnn(C)c5)c(C(F)F)cc43)c2C1 [Compound M001122] | > 1 | – | > 1 | – |
| CON1CCC(c2cc3c(c(N4CCCc5cc(-c6cnn(C)c6)c(C(F)F)cc54)c2)CN(C(=O)OC(C)(C)C)C3)CC1 [Compound M001275] | > 1 | – | > 1 | – |
| CNC(=O)N1C2CCC1CC(c1cc3c(c(N4CCCc5cc(-c6cnn(C)c6)c(C(F)F)cc54)c1)CN(C(C)=O)C3)C2 (stereo not shown) [Compound M001129] | < 1 | – | < 1 | – |
| CC(=O)N1Cc2cc(C3CCCN(C)C3)cc(N3CCCc4cc(-c5cnn(C)c5)c(C(F)F)cc43)c2C1 (stereo not shown) [Compound M001049] | > 1 | – | > 1 | – |
| CNC(=O)N1CCc2cc(C3CCN(OC)CC3)cc(N3CCCc4cc(-c5cnn(C)c5)c(C(F)F)cc43)c2C1 [Compound M001268] | > 1 | – | < 1 | – |
| CC(=O)N1Cc2cc(C3CCN(C(=O)C4CNC4)CC3)cc(N3CCCc4cc(-c5cnn(C)c5)c(C(F)F)cc43)c2C1 [Compound M001079] | > 1 | – | > 1 | – |
| CNC(=O)N1CCc2cc(C3CCN(CC(F)(F)F)C(=O)C3)cc(N3CCCc4cc(-c5cnn(C)c5)c(C(F)F)cc43)c2C1 (stereo not shown) [Compound M001253] | < 1 | – | < 1 | – |
| CC(=O)N1Cc2cc(C3CCNC(=O)C3)cc(N3CCCc4cc(-c5cnn(C)c5)c(C(F)F)cc43)c2C1 (stereo not shown) [Compound M001126] | < 1 | > 0.01 | < 1 | – |
| CNC(=O)N1Cc2cc([C@H]3CC[C@@H](O)CC3)cc(N3CCCc4cc(-c5cnn(C)c5)c(C(F)F)cc43)c2C1 [Compound M001192] | > 1 | – | > 1 | – |
| CNC(=O)N1Cc2cc(C3=CC4CCC(C3)N4)cc(N3CCCc4cc(-c5cnn(C)c5)c(C(F)F)cc43)c2C1 (stereo not shown) [Compound M001098] | > 1 | – | > 1 | – |
